≈ marks a conversion by molar mass, not a printed value. Numbered stars: 1 amine (or outer) side, 2 acyl side, 3 side chain; on linkers, the order of the positions; unused ones are H or OH. Peptide text beside a SMILES is read from it. * marks the point of attachment. Cyclohexylacetyl = O=C(CC1CCCCC1)*; Cyclopropanecarbonyl = O=C(C1CC1)*; Butanoyl(2-Et) = CCC(CC)C(=O)*; Suc = O=C(CCC(=O)[*:2])[*:1]; Nonanoyl = CCCCCCCCC(=O)*; Isobutyryl = CC(C)C(=O)*; Butyryl = CCCC(=O)*
Assays:
PLC-γ1 = molecular target: T1, PLC-γ1 (Bos taurus, UniProt P08487); assay: PLC-inhibiting activity (release of [3H]inositol phosphate from [3H]PIP2); assay type: biochemical, bovine; conditions: PI-PLC-γ1, 37° C., 10 minutes; for inhibition at 120 µM (stock): Concentration 120 μM (aqueous solution of test peptide)
T1 construct: A sample (PLC-γ1) was prepared from bovine thymus according to the method of Y. Homma et al; from tissue; host or cells: bovine thymus
T1 sequence (P08487 1-1291): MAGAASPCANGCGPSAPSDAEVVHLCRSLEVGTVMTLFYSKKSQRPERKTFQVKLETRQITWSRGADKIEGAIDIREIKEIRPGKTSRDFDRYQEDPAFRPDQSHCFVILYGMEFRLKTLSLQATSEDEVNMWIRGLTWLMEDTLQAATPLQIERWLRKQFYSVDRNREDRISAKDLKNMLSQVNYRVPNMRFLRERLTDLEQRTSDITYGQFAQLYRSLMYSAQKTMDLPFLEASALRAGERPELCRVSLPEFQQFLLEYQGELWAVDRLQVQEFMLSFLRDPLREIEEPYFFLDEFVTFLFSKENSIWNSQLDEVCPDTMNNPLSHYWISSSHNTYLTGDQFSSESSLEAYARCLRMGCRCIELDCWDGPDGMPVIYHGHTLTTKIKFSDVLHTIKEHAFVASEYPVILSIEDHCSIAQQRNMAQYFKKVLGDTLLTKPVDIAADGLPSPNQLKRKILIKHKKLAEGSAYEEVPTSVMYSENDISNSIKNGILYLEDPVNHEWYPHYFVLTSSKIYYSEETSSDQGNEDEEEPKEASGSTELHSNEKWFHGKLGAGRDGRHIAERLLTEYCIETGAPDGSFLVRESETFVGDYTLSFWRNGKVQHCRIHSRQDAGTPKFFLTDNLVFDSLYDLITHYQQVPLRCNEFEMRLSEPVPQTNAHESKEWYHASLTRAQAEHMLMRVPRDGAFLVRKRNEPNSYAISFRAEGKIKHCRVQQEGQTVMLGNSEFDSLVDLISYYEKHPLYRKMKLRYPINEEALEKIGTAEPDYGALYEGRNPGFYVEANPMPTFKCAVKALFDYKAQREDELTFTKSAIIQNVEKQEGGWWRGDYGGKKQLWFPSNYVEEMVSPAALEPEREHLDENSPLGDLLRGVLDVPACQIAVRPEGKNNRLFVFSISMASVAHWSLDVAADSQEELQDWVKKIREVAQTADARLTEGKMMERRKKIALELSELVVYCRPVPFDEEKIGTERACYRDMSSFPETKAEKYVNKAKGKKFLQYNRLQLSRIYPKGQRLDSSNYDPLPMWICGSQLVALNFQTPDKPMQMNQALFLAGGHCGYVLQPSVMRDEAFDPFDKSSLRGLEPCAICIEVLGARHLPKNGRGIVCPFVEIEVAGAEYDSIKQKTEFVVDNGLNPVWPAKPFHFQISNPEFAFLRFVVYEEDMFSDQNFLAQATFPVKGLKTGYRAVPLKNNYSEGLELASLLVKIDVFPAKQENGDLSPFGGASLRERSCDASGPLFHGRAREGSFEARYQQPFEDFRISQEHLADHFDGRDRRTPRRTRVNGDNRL
Method: A sample (PLC-γ1) was prepared from bovine thymus according to the method of Y. Homma et al. described in Biochemical Journal [(Biochem. J.), 269, 13 (1990)]. A solution having the composition listed in Table 1 below was prepared in advance on the ice and the reaction was begun with heating to 37° C. After incubation for 10 minutes, 2 ml of a solution mixture of chloroform/methanol (2:[…]) was added thereto to stop the reaction. The resulting inositol phosphate was extracted with 0.5 ml of 1N hydrochloric acid. Two-phase distribution was carried out by centrifugation (2000×g, 3 minutes), and the amount of ^3 H contained in 0.7 ml of the supernatant was measured with scintillation counter. […] The obtained value of specific radioactivity was defined as "A", the value of specific radioactivity obtained when an equivalent amount of water was added instead of the aqueous solution of the test peptide was defined as "B", the value of specific radioactivity obtained when an equivalent amount of water was added instead of the sample and the aqueous solution of the test peptide was defined as "C", and the inhibition rate (X) was determined according to the following equation. X(%)=[…]

KMS-4 cells = assay: Cell proliferation-inhibiting activity (BrdU incorporation, Amersham Cell Proliferation Detection Kit); assay type: cell-based; conditions: 17 hours with peptide, BrdU-stained cells
Method: The following procedure was carried out with an Amersham Cell Proliferation Detection Kit. First, cells [KMS-4; M. Nanba et al., International Journal of Cancer, 32, 697 (1983)] were suspended in a DMEM culture medium (product of Nissui Seiyaku) containing 10% fetal calf serum to a concentration of 1-2×10^4 cells/ml, and 1 ml of the above-mentioned cell suspension was put into each well of a 24-well plate (product of Corning Co.). The cells were cultured for 2 days in a CO2 incubator (37° C., 5% CO2). Next, the culture medium was exchanged with a DMEM medium containing 10% fetal calf serum, and then the test peptide was added thereto and culturing was carried out for 17 hours. The culture medium was again exchanged with a serum-free DMEM medium, 0.5 ml of a solution of the reagents labelled 5-bromo-2'-deoxyuridine (BrdU) and 5-fluoro-2'-deoxyuridine (FdU) [10:1] diluted 1000-fold with the same medium was added to each well, and cultured for 2 hours. The culture medium was removed, and the cells were immobilized with an acetic acid/ethanol solution. The immobilized cells were stained according to the method for the Amersham Cell Proliferation Kit, and then further stained with a 1% Giemsa solution (product of Merck Co.). The number of cells incorporating BrdU and the total cell count within 1 field of vision of the microscope (approximately 200 cells) were determined, and the proportion (%) of stained cells per field of vision was calculated. Furthermore, the same procedure was repeated 10 times, and the average value thereof was defined as the cell proliferation activity (%). The cell proliferation-inhibiting activity was calculated in the following manner. The proliferation activity without addition of peptide was defined as "A", the proliferation activity with addition of the test peptide was defined as "B", and the cell proliferation inhibition rate (X) was determined according to the following equation. X (%)=[…]

[1] = test system: Proteus vulgaris ATCC6897; assay type: cell-based; conditions: ATCC6897, pH 7
Method: (§1) The antibacterial activity was determined by the agar dilution method using a culture medium (pH 7.0) containing 3 g/l bactotrypton (product of Difco Co.), 1 g/l meat extract, 1 g/l glucose and 16 g/l agar.

[2] = test system: Pseudomonas aeruginosa Bin H No. 1; assay type: cell-based; conditions: Bin H No. 1, pH 7
Method: as §1

Compound: CSCC[C@H](NC(=O)[C@H](CCCCN)NC(=O)[C@H](CCCNC(=N)N)NC(=O)[C@H](Cc1ccc(O)cc1)NC(=O)[C@H](CC(C)C)NC(=O)C(C)C)C(=O)N[C@@H](CCCNC(=N)N)C(=O)N[C@@H](CC(C)C)C(=O)N[C@@H](CCCNC(=N)N)C(=O)N[C@@H](Cc1ccc(O)cc1)C(=O)N1CCC[C@H]1C(=O)N[C@H](C(N)=O)C(C)C [(I-19), (CH3)2 CHCO-Leu-Tyr-Arg-Lys-Met-Arg-Leu-Arg-Tyr-Pro-Val-NH2] (Isobutyryl-LYRKMRLRYPV-NH2)
- inhibition at 640 µM (stock) (PLC-γ1; Concentration 640 μM (aqueous solution of test peptide), read-out: Inhibition rate (%)): 67%
- Cell proliferation inhibition rate (%) (KMS-4 cells; Concentration 32 μM): 59%
- MIC [1]: 83 µg/mL (≈ 53.1 µM)
- MIC [2]: 83 µg/mL (≈ 53.1 µM)

Compound: CCC(CC)C(=O)N[C@@H](CC(C)C)C(=O)N[C@@H](Cc1ccc(O)cc1)C(=O)N[C@@H](CCCNC(=N)N)C(=O)N[C@@H](CCCCN)C(=O)N[C@@H](CCSC)C(=O)N[C@@H](CCCNC(=N)N)C(=O)N[C@@H](CC(C)C)C(=O)N[C@@H](CCCNC(=N)N)C(=O)N[C@@H](Cc1ccc(O)cc1)C(=O)N1CCC[C@H]1C(=O)N[C@H](C(N)=O)C(C)C [(I-20), (CH3 CH2)2 CHCO-Leu-Tyr-Arg-Lys-Met-Arg-Leu-Arg-Tyr-Pro-Val-NH2] ({Butanoyl(2-Et)}-LYRKMRLRYPV-NH2)
- inhibition at 630 µM (stock) (PLC-γ1; Concentration 630 μM (aqueous solution of test peptide), read-out: Inhibition rate (%)): 74%
- Cell proliferation inhibition rate (%) (KMS-4 cells; Concentration 31 μM): 44%
- MIC [1]: 83 µg/mL (≈ 52.1 µM)
- MIC [2]: 83 µg/mL (≈ 52.1 µM)

Compound: CSCC[C@H](NC(=O)[C@H](CCCCN)NC(=O)[C@H](CCCNC(=N)N)NC(=O)[C@H](Cc1ccc(O)cc1)NC(=O)[C@H](CC(C)C)NC(=O)CCC(=O)O)C(=O)N[C@@H](CCCNC(=N)N)C(=O)N[C@@H](CC(C)C)C(=O)N[C@@H](CCCNC(=N)N)C(=O)N[C@@H](Cc1ccc(O)cc1)C(=O)N1CCC[C@H]1C(=O)N[C@H](C(N)=O)C(C)C [(I-22), HOO (CH2)2 CO-Leu-Tyr-Arg-Lys-Met-Arg-Leu-Arg-Tyr-Pro-Val-NH2] (Suc-LYRKMRLRYPV-NH2)
- inhibition at 130 µM (stock) (PLC-γ1; Concentration 130 μM (aqueous solution of test peptide), read-out: Inhibition rate (%)): 36%
- Cell proliferation inhibition rate (%) (KMS-4 cells; Concentration 31 μM): 84%
- MIC [1]: 83 µg/mL (≈ 52.1 µM)
- MIC [2]: 42 µg/mL (≈ 26.3 µM)

Compound: CSCC[C@H](NC(=O)[C@H](CCCCN)NC(=O)[C@H](CCCNC(=N)N)NC(=O)[C@H](Cc1ccc(O)cc1)NC(=O)[C@H](CC(C)C)NC(=O)C1CC1)C(=O)N[C@@H](CCCNC(=N)N)C(=O)N[C@@H](CC(C)C)C(=O)N[C@@H](CCCNC(=N)N)C(=O)N[C@@H](Cc1ccc(O)cc1)C(=O)N1CCC[C@H]1C(=O)N[C@H](C(N)=O)C(C)C [(I-24), C3 H5 CO-Leu-Tyr-Arg-Lys-Met-Arg-Leu-Arg-Tyr-Pro-Val-NH2] (Cyclopropanecarbonyl-LYRKMRLRYPV-NH2)
- inhibition at 120 µM (stock) (PLC-γ1; read-out: Inhibition rate (%)): 55%
- Cell proliferation inhibition rate (%) (KMS-4 cells; Concentration 32 μM): 66%

Compound: CSCC[C@H](NC(=O)[C@H](CCCCN)NC(=O)[C@H](CCCNC(=N)N)NC(=O)[C@H](Cc1ccc(O)cc1)NC(=O)[C@H](CC(C)C)NC(=O)CC1CCCCC1)C(=O)N[C@@H](CCCNC(=N)N)C(=O)N[C@@H](CC(C)C)C(=O)N[C@@H](CCCNC(=N)N)C(=O)N[C@@H](Cc1ccc(O)cc1)C(=O)N1CCC[C@H]1C(=O)N[C@H](C(N)=O)C(C)C [(I-25), C6 H11 CH2 CO-Leu-Tyr-Arg-Lys-Met-Arg-Leu-Arg-Tyr-Pro-Val-NH2] (Cyclohexylacetyl-LYRKMRLRYPV-NH2)
- inhibition at 120 µM (stock) (PLC-γ1; read-out: Inhibition rate (%)): 50%
- Cell proliferation inhibition rate (%) (KMS-4 cells; Concentration 31 μM): 75%

Compound: CCCCCCCCC(=O)N[C@@H](CC(C)C)C(=O)N[C@@H](Cc1ccc(O)cc1)C(=O)N[C@@H](CCCNC(=N)N)C(=O)N[C@@H](CCCCN)C(=O)N[C@@H](CCSC)C(=O)N[C@@H](CCCNC(=N)N)C(=O)N[C@@H](CC(C)C)C(=O)N[C@@H](CCCNC(=N)N)C(=O)N[C@@H](Cc1ccc(O)cc1)C(=O)N1CCC[C@H]1C(=O)N[C@H](C(N)=O)C(C)C [(I-28), CH3 (CH2)7 CO-Leu-Tyr-Arg-Lys-Met-Arg-Leu-Arg-Tyr-Pro-Val-NH2] (Nonanoyl-LYRKMRLRYPV-NH2)
- inhibition at 120 µM (stock) (PLC-γ1; read-out: Inhibition rate (%)): 78%
- Cell proliferation inhibition rate (%) (KMS-4 cells; Concentration 31 μM): 22%

Compound: H-YRKMRLRY-NH2 [Compound (I-9), H-Tyr-Arg-Lys-Met-Arg-Leu-Arg-Tyr-NH2]
- inhibition at 850 µM (stock) (PLC-γ1; Concentration 850 μM (aqueous solution of test peptide), read-out: Inhibition rate (%)): 34%
- Cell proliferation inhibition rate (%) (KMS-4 cells; Concentration 42 μM): 50%

Compound: n-C3 H7 CO-Leu-Tyr-Arg-Lys-Met-Arg-Leu-Arg-Tyr-Pro-Val-NH2 (Butyryl-LYRKMRLRYPV-NH2; SMILES CCCC(=O)N[C@@H](CC(C)C)C(=O)N[C@@H](Cc1ccc(O)cc1)C(=O)N[C@@H](CCCNC(=N)N)C(=O)N[C@@H](CCCCN)C(=O)N[C@@H](CCSC)C(=O)N[C@@H](CCCNC(=N)N)C(=O)N[C@@H](CC(C)C)C(=O)N[C@@H](CCCNC(=N)N)C(=O)N[C@@H](Cc1ccc(O)cc1)C(=O)N1CCC[C@H]1C(=O)N[C@H](C(N)=O)C(C)C) [Compound (I-11)]
- Inhibition rate (%) (PLC-γ1; Concentration 130 μM (aqueous solution of test peptide)): 31%
- Cell proliferation inhibition rate (%) (KMS-4 cells; Concentration 1 μM): 86%
- Cell proliferation inhibition rate (%) (KMS-4 cells; Concentration 32 μM): 84%

Source: patent publication US5580956A, “Phospholipase C-inhibiting peptides” (priority 1992, dated 1996)
